From US10405547B2, “Substituted cyclic amides as herbicides” (FMC Corporation, priority 2015, dated 2019)

Experiments:
Format in all cases: in vivo
[1] = test system: blackgrass (Alopecurus myosuroides); test: Test A postemergence, blackgrass; conditions: visual injury, 0 to 100 scale (0 no effect, 100 complete control), approximately 10 days
In short: (§1)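 Injury scores (0 no effect, 100 complete control) were assigned by visually comparing treated with untreated plants after about 10 days of greenhouse growth. Seeds for soil treatment were sown into a loam and sand blend, while plants for foliar treatment grew in pots of that same blend.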

[2] = test system: sedge, umbrella (small-flower umbrella sedge, Cyperus difformis); test: Test B flooded paddy test, umbrella sedge; conditions: 250 g ai/ha, applied to paddy water, visual rating after 13 to 15 days, scale 0 (no effect) to 100 (complete control)
Source text: (§2) At time of treatment, test pots were flooded to 3 cm above the soil surface, treated by application of test compounds directly to the paddy water, and then maintained at that water depth for the duration of the test. Treated plants and controls were maintained in a greenhouse for 13 to 15 days, after which time all species were compared to controls and visually evaluated. […] A dash (-) response means no test result.

[3] = test system: barnyardgrass (Echinochloa crus-galli); test: Test B flooded paddy test, barnyardgrass; conditions: 250 g ai/ha, applied to paddy water, visual rating after 13 to 15 days, scale 0 (no effect) to 100 (complete control)
Source text: as §2

[4] = test system: barnyardgrass (Echinochloa crus-galli); test: Test A preemergence, barnyardgrass; conditions: 0 to 100 scale (0 no effect, 100 complete control)
In short: as §1

kochia (Kochia scoparia) = test: Test A preemergence, kochia; conditions: 0 to 100 scale (0 no effect, 100 complete control)
In short: as §1

rice (Oryza sativa) = test: Test B flooded paddy test, rice; conditions: 250 g ai/ha, applied to paddy water, visual rating after 13 to 15 days, scale 0 (no effect) to 100 (complete control)
Source text: as §2

[5] = test system: foxtail, giant (Setaria faberii); test: Test A postemergence, giant foxtail; conditions: visual injury, 0 to 100 scale (0 no effect, 100 complete control), approximately 10 days
In short: as §1

[6] = test system: wheat (Triticum aestivum); test: Test A postemergence, wheat; conditions: visual injury, 0 to 100 scale (0 no effect, 100 complete control), approximately 10 days
In short: as §1

[7] = test system: ragweed (common ragweed, Ambrosia elatior); test: Test A postemergence, ragweed; conditions: visual injury, 0 to 100 scale (0 no effect, 100 complete control), approximately 10 days
In short: as §1

[8] = test system: galium (catchweed bedstraw, Galium aparine); test: Test A postemergence, galium; conditions: visual injury, 0 to 100 scale (0 no effect, 100 complete control), approximately 10 days
In short: as §1

[9] = test system: pigweed (Amaranthus retroflexus); test: Test A postemergence, pigweed; conditions: visual injury, 0 to 100 scale (0 no effect, 100 complete control), approximately 10 days
In short: as §1

[10] = test system: foxtail, giant (Setaria faberii); test: Test A preemergence, giant foxtail; conditions: 0 to 100 scale (0 no effect, 100 complete control)
In short: as §1

[11] = test system: ducksalad (Heteranthera limosa); test: Test B flooded paddy test, ducksalad; conditions: 250 g ai/ha, applied to paddy water, visual rating after 13 to 15 days, scale 0 (no effect) to 100 (complete control)
Source text: as §2

[12] = test system: pigweed (Amaranthus retroflexus); test: Test A preemergence, pigweed; conditions: 0 to 100 scale (0 no effect, 100 complete control)
In short: as §1

[13] = test system: ragweed (common ragweed, Ambrosia elatior); test: Test A preemergence, ragweed; conditions: 0 to 100 scale (0 no effect, 100 complete control)
In short: as §1

[14] = test system: ryegrass, Italian (Lolium multiflorum); test: Test A preemergence, Italian ryegrass; conditions: 0 to 100 scale (0 no effect, 100 complete control)
In short: as §1

corn (Zea mays) = test: Test A postemergence, corn; conditions: visual injury, 0 to 100 scale (0 no effect, 100 complete control), approximately 10 days
In short: as §1

[15] = test system: ryegrass, Italian (Lolium multiflorum); test: Test A postemergence, Italian ryegrass; conditions: visual injury, 0 to 100 scale (0 no effect, 100 complete control), approximately 10 days
In short: as §1

[16] = test system: barnyardgrass (Echinochloa crus-galli); test: Test A postemergence, barnyardgrass; conditions: visual injury, 0 to 100 scale (0 no effect, 100 complete control), approximately 10 days
In short: as §1

SMILES	Plant response rating, Blackgrass ([1]; 125 g ai/ha)	Plant response rating, Blackgrass ([1]; 500 g ai/ha)	Plant response rating, Sedge, Umbrella (Flood) [2]	Plant response rating, Barnyardgrass (Flood) [3]	Plant response rating, Barnyardgrass ([4]; 125 g ai/ha)	Plant response rating, Barnyardgrass ([4]; 500 g ai/ha)	Plant response rating, Kochia (kochia (Kochia scoparia); 125 g ai/ha)	Plant response rating, Kochia (kochia (Kochia scoparia); 500 g ai/ha)	Plant response rating, Rice (Flood) (rice (Oryza sativa))	Plant response rating, Foxtail, Giant ([5]; 125 g ai/ha)	Plant response rating, Foxtail, Giant ([5]; 500 g ai/ha)	Plant response rating, Wheat ([6]; 125 g ai/ha)	Plant response rating, Wheat ([6]; 500 g ai/ha)	Plant response rating, Ragweed ([7]; 125 g ai/ha)	Plant response rating, Ragweed ([7]; 500 g ai/ha)	Plant response rating, Galium ([8]; 125 g ai/ha)	Plant response rating, Galium ([8]; 500 g ai/ha)	Plant response rating, Pigweed ([9]; 125 g ai/ha)	Plant response rating, Pigweed ([9]; 500 g ai/ha)	Plant response rating, Foxtail, Giant ([10]; 125 g ai/ha)	also measured
O=C1NCC(c2cccc(Oc3ccc(C(F)(F)F)cn3)c2)C1C(=O)Nc1ccccc1F (single isomer, unassigned) [Compound 62]	0	30	0	40	90	90	30	60	20	80	90	0	30	0	40	30	60	0	30	90	Plant response rating, Foxtail, Giant ([10]; 500 g ai/ha): 90; Plant response rating, Ducksalad (Flood) [11]: 100; Plant response rating, Pigweed ([12]; 125 g ai/ha): 30; Plant response rating, Pigweed ([12]; 500 g ai/ha): 50; Plant response rating, Ragweed ([13]; 125 g ai/ha): 0; Plant response rating, Ragweed ([13]; 500 g ai/ha): 50; Plant response rating, Ryegrass, Italian ([14]; 125 g ai/ha): 0; Plant response rating, Ryegrass, Italian ([14]; 500 g ai/ha): 20; Plant response rating, Corn (corn (Zea mays); 125 g ai/ha): 30; Plant response rating, Corn (corn (Zea mays); 500 g ai/ha): 30; Plant response rating, Ryegrass, Italian ([15]; 125 g ai/ha): 0; Plant response rating, Ryegrass, Italian ([15]; 500 g ai/ha): 30; Plant response rating, Barnyardgrass ([16]; 125 g ai/ha): 70; Plant response rating, Barnyardgrass ([16]; 500 g ai/ha): 90
CN1CC(c2cccc(Oc3ccc(F)cn3)c2)C(C(=O)Nc2ccccc2F)C1=O (single isomer, unassigned) [Compound 60]	0	30	0	65	90	90	70	80	0	80	90	0	70	0	40	30	60	0	40	90	Plant response rating, Foxtail, Giant ([10]; 500 g ai/ha): 90; Plant response rating, Ducksalad (Flood) [11]: 100; Plant response rating, Pigweed ([12]; 125 g ai/ha): 60; Plant response rating, Pigweed ([12]; 500 g ai/ha): 50; Plant response rating, Ragweed ([13]; 125 g ai/ha): 40; Plant response rating, Ragweed ([13]; 500 g ai/ha): 50; Plant response rating, Ryegrass, Italian ([14]; 125 g ai/ha): 20; Plant response rating, Ryegrass, Italian ([14]; 500 g ai/ha): 70; Plant response rating, Corn (corn (Zea mays); 125 g ai/ha): 30; Plant response rating, Corn (corn (Zea mays); 500 g ai/ha): 50; Plant response rating, Ryegrass, Italian ([15]; 125 g ai/ha): 30; Plant response rating, Ryegrass, Italian ([15]; 500 g ai/ha): 50; Plant response rating, Barnyardgrass ([16]; 125 g ai/ha): 70; Plant response rating, Barnyardgrass ([16]; 500 g ai/ha): 90
CN1CC(c2cccc(Sc3ccccc3)c2)C(C(=O)Nc2ccccc2F)C1=O (single isomer, unassigned) [Compound 50]	0	0	0	0	0	40	0	30	0	50	70	0	0	0	0	0	40	0	30	90	Plant response rating, Foxtail, Giant ([10]; 500 g ai/ha): 90; Plant response rating, Ducksalad (Flood) [11]: 70; Plant response rating, Pigweed ([12]; 125 g ai/ha): 20; Plant response rating, Pigweed ([12]; 500 g ai/ha): 20; Plant response rating, Ragweed ([13]; 125 g ai/ha): 0; Plant response rating, Ragweed ([13]; 500 g ai/ha): 30; Plant response rating, Ryegrass, Italian ([14]; 125 g ai/ha): 0; Plant response rating, Ryegrass, Italian ([14]; 500 g ai/ha): 0; Plant response rating, Corn (corn (Zea mays); 125 g ai/ha): 0; Plant response rating, Corn (corn (Zea mays); 500 g ai/ha): 20; Plant response rating, Ryegrass, Italian ([15]; 125 g ai/ha): 0; Plant response rating, Ryegrass, Italian ([15]; 500 g ai/ha): 0; Plant response rating, Barnyardgrass ([16]; 125 g ai/ha): 0; Plant response rating, Barnyardgrass ([16]; 500 g ai/ha): 30
O=C1NCC(c2cccc(Oc3ccc(F)cn3)c2)C1C(=O)Nc1cccc(F)c1F (single isomer, unassigned) [Compound 52]	30	40	0	40	70	90	70	80	0	70	90	0	40	0	60	40	60	40	60	90	Plant response rating, Foxtail, Giant ([10]; 500 g ai/ha): 90; Plant response rating, Ducksalad (Flood) [11]: 100; Plant response rating, Pigweed ([12]; 125 g ai/ha): 60; Plant response rating, Pigweed ([12]; 500 g ai/ha): 70; Plant response rating, Ragweed ([13]; 125 g ai/ha): 40; Plant response rating, Ragweed ([13]; 500 g ai/ha): 80; Plant response rating, Ryegrass, Italian ([14]; 125 g ai/ha): 30; Plant response rating, Ryegrass, Italian ([14]; 500 g ai/ha): 40; Plant response rating, Corn (corn (Zea mays); 125 g ai/ha): 50; Plant response rating, Corn (corn (Zea mays); 500 g ai/ha): 70; Plant response rating, Ryegrass, Italian ([15]; 125 g ai/ha): 30; Plant response rating, Ryegrass, Italian ([15]; 500 g ai/ha): 60; Plant response rating, Barnyardgrass ([16]; 125 g ai/ha): 70; Plant response rating, Barnyardgrass ([16]; 500 g ai/ha): 80
